Experiments:
[1] = biological target: T1, human Tim4 IgG Fc fusion protein, modified type hTim4-181-Fc, SEQ ID NO: 63 (Homo sapiens, UniProt Q96H15); test: Dot blotting, binding of hTim4-181-Fc to PS; conditions: 0.15 μg of PS spotted; fusion protein 0.5 μg/mL, 4° C. overnight
T1 construct: replaced N-terminal leader; Freestyle 293F, purified
Protocol: (§1) Dot blotting was carried out by the following procedure to evaluate the binding capacity of each fusion protein (hTim4-Fc) prepared as described above to PS. On a PVDF membrane (GE Healthcare) with a size of 10 mm×10 mm, 0.15 μg of PS was spotted, and the resulting membrane was incubated in 500 μL of a blocking buffer (5% skim milk—PBS-T) in a 24-well plate at room temperature for 1 hour, to perform blocking. To the blocking buffer in the well, each fusion protein was added at a final concentration of 0.5 μg/mL, and incubation was carried out at 4° C. overnight. A control was provided by use of only the blocking buffer. Thereafter, the PVDF membrane was washed 5 times with 2 mL of PBS-T, and incubated at room temperature for 2 hours in an HRP-conjugated anti-human IgG-Fc antibody (Bethyl) solution which was 10000-fold diluted with 500 μL of the blocking buffer. Subsequently, the membrane was washed 5 times with 2 mL of PBS-T, followed by chemiluminescence using ECL prime (GE healthcare) and detection using LAS 3000 (Fujifilm).

[2] = biological target: T2, human Tim4 IgG Fc fusion protein, modified type hTim4-181-Fc (52 mucin domain residues), SEQ ID NO: 63 (Homo sapiens, UniProt Q96H15); test: ELISA, binding capacity of hTim4-181-Fc to PS; conditions: n = 2
T2 construct: made in house; host or cells: Freestyle 293F cells
Source text: (§2) Using the primers shown in Table 4 and PrimeSTAR Mutagenesis Basal Kit (Takara Bio Inc.), vectors encoding fusion proteins having mucin domains with various lengths, in which the C-terminus and/or the N-terminus of the wild-type mucin domain was/were deleted. More specifically, phTim4-Fc was used as a template to prepare phTim4-240-Fc and phTim4-187-Fc; the obtained phTim4-187-Fc was used as a template to prepare phTim4-184-Fc, phTim4-181-Fc, phTim4-178-Fc, phTim4-175-Fc, phTim4-162-Fc, phTim4-149-Fc, phTim4-135-Fc, phTim4-130-Fc and phTim4-Δ131-187-Fc; the obtained phTim4-240-Fc was used as a template to prepare phTim4-Δ131-240-Fc; and the obtained phTim4-Δ131-187-Fc was used as a template to prepare phTim4-Δ131-187Δ241-310-Fc. […]
(§3) The obtained vector of 37.5 μg was transfected into 30 mL of 1×10^6 cells/mL Freestyle 293F cells (Life technologies) using Freestyle MAX Reagent (Life technologies), and the cells were cultured with shaking at 37° C. under 8% CO2 for 4 days. […] The purified protein was subjected to SDS-PAGE, and the molecular weight under non-reducing conditions was calculated (Table 6). […]
(§4) Into a 96-well plate, 100 μL of PS (0.5 mg/mL) or a solvent (methanol) was placed, and dried. […] An HRP-conjugated anti-human IgG-Fc antibody was used as a secondary antibody, and the absorbance due to coloring with TMB was measured using a microplate reader. […]

[3] = biological target: T3, human Tim4 IgG Fc fusion protein, modified type hTim4-175-Fc (46 mucin domain residues), SEQ ID NO: 67 (Homo sapiens, UniProt Q96H15); test: ELISA, binding capacity of hTim4-175-Fc to PS; conditions: n = 2
T3 construct: made in house; host or cells: Freestyle 293F cells
Source text: as §2, §3, §4

[4] = biological target: T4, human Tim4 IgG Fc fusion protein, modified type hTim4-184-Fc (55 mucin domain residues), SEQ ID NO: 61 (Homo sapiens, UniProt Q96H15); test: ELISA, binding capacity of hTim4-184-Fc to PS; conditions: n = 2
T4 construct: made in house; host or cells: Freestyle 293F cells
Source text: as §2, §3, §4

[5] = biological target: T5, human Tim4 IgG Fc fusion protein, modified type hTim4-175-Fc, SEQ ID NO: 67 (Homo sapiens, UniProt Q96H15); test: Dot blotting, binding of hTim4-175-Fc to PS; conditions: 0.15 μg of PS spotted; fusion protein 0.5 μg/mL, 4° C. overnight
T5 construct: replaced N-terminal leader; Freestyle 293F, purified
Protocol: as §1

[6] = biological target: T6, human Tim4 IgG Fc fusion protein, modified type hTim4-Δ131-187Δ241-310-Fc (58 mucin domain residues), SEQ ID NO: 57 (Homo sapiens, UniProt Q96H15, DEL135-187/V240A); test: ELISA, binding capacity of hTim4-Δ131-187Δ241-310-Fc to PS; conditions: n = 2
T6 construct: made in house; host or cells: Freestyle 293F cells
Source text: as §2, §3, §4

[7] = biological target: T7, human Tim4 IgG Fc fusion protein, modified type hTim4-240-Fc (111 mucin domain residues), SEQ ID NO: 51 (Homo sapiens, UniProt Q96H15, V240A); test: ELISA, binding capacity of hTim4-240-Fc to PS; conditions: n = 2
T7 construct: made in house; host or cells: Freestyle 293F cells
Source text: as §2, §3, §4

[8] = biological target: T8, human Tim4 IgG Fc fusion protein, modified type hTim4-178-Fc (49 mucin domain residues), SEQ ID NO: 65 (Homo sapiens, UniProt Q96H15); test: ELISA, binding capacity of hTim4-178-Fc to PS; conditions: n = 2
T8 construct: made in house; host or cells: Freestyle 293F cells
Source text: as §2, §3, §4

[9] = biological target: T9, human Tim4 IgG Fc fusion protein, modified type hTim4-187-Fc (58 mucin domain residues), SEQ ID NO: 59 (Homo sapiens, UniProt Q96H15); test: ELISA, binding capacity of hTim4-187-Fc to PS; conditions: n = 2
T9 construct: made in house; host or cells: Freestyle 293F cells
Source text: as §2, §3, §4

[10] = biological target: T10, human Tim4 IgG Fc fusion protein, modified type hTim4-Δ131-240-Fc (55 mucin domain residues), SEQ ID NO: 55 (Homo sapiens, UniProt Q96H15, DEL135-260); test: ELISA, binding capacity of hTim4-Δ131-240-Fc to PS; conditions: n = 2
T10 construct: made in house; host or cells: Freestyle 293F cells
Source text: as §2, §3, §4

[11] = biological target: T11, human Tim4 IgG Fc fusion protein, modified type hTim4-187-Fc, SEQ ID NO: 59 (Homo sapiens, UniProt Q96H15); test: Dot blotting, binding of hTim4-187-Fc to PS; conditions: 0.15 μg of PS spotted; fusion protein 0.5 μg/mL, 4° C. overnight
T11 construct: replaced N-terminal leader; Freestyle 293F, purified
Protocol: as §1

[12] = biological target: T11, human Tim4 IgG Fc fusion protein, modified type hTim4-187-Fc, SEQ ID NO: 59; test: Dot blotting, binding specificity of hTim4-187-Fc to various phospholipids; conditions: PE, PC, PI and PS spotted, 1 μL of 100 pmol/μL each; fusion protein 0.5 μg/mL, room temperature 2 hours
Protocol: Dot blotting was carried out by the following procedure to evaluate the binding capacity of the fusion protein of the present invention to various phospholipids.
On a PVDF membrane (GE Healthcare), 1 μL each of 100 pmol/μL 3-sn-phosphatidylethanolamine (PE), L-α-phosphatidylcholine (PC), L-α-phosphatidylinositol (PI), and 3-sn-phosphatidyl-L-serine (Sigma Aldrich) were spotted, and the resulting membrane was incubated in 2 mL of a blocking buffer (5% skim milk—PBS-T) at room temperature for 1 hour, to perform blocking. To the blocking buffer in each well, hTim4-187-Fc was added at a final concentration of 0.5 μg/mL, and incubation was carried out at room temperature for 2 hours. Thereafter, the PVDF membrane was washed 5 times with 5 mL of PBS-T, and incubated at room temperature for 2 hours in an HRP-conjugated anti-human IgG-Fc antibody (Bethyl) solution which was 10000-fold diluted with 2 mL of the blocking buffer. Subsequently, the membrane was washed 5 times with 5 mL of PBS-T, followed by chemiluminescence using ECL prime (GE healthcare) and detection using LAS 3000 (Fujifilm).

[13] = biological target: T12, human Tim4 wild-type IgG Fc fusion protein hTim4-Fc (181 mucin domain residues), SEQ ID NO: 49 (Homo sapiens, UniProt Q96H15, D300G/G301W/M299D/Q298T/V240A); test: ELISA, binding capacity of hTim4-Fc to PS; conditions: n = 2
T12 construct: made in house; host or cells: Freestyle 293F cells
Protocol: Using a vector encoding the hTim4 sequence (pCMV6-XL5 Homo sapiens T-cell immunoglobulin and mucin domain containing 4, transcript variant 1 as transfection-ready DNA, OriGene Technologies) as a template, and a primer containing an EcoRV restriction site at 5′-end (SEQ ID NO:22) and a primer containing a BglII restriction site at 3′-end (SEQ ID NO:23), PCR was performed. The obtained PCR product and pFUSE-hIgG1e3-Fc2 (InvivoGen) encoding the human IgG-Fc region were each digested with EcoRV and BglII, and the resulting digestion products were ligated to each other. E. coli (JM109, Takara Bio Inc.) was transformed with the resulting ligation product, and colonies were obtained. From the obtained colonies, plasmids were extracted, and the DNA sequences of the plasmids were analyzed. A colony having the hTim4 sequence inserted therein was subjected to large-scale culture, to obtain a vector. […]
as §3

[14] = biological target: T13, human Tim4 IgG Fc fusion protein, modified type hTim4-184-Fc, SEQ ID NO: 61 (Homo sapiens, UniProt Q96H15); test: Dot blotting, binding of hTim4-184-Fc to PS; conditions: 0.15 μg of PS spotted; fusion protein 0.5 μg/mL, 4° C. overnight
T13 construct: replaced N-terminal leader; Freestyle 293F, purified
Protocol: as §1

[15] = biological target: T14, human Tim4 IgG Fc fusion protein, modified type hTim4-178-Fc, SEQ ID NO: 65 (Homo sapiens, UniProt Q96H15); test: Dot blotting, binding of hTim4-178-Fc to PS; conditions: 0.15 μg of PS spotted; fusion protein 0.5 μg/mL, 4° C. overnight
T14 construct: replaced N-terminal leader; Freestyle 293F, purified
Protocol: as §1

[16] = biological target: T15, human Tim4 IgG Fc fusion protein, modified type hTim4-240-Fc, SEQ ID NO: 51 (Homo sapiens, UniProt Q96H15, V240A); test: Dot blotting, binding of hTim4-240-Fc to PS; conditions: 0.15 μg of PS spotted; fusion protein 0.5 μg/mL, 4° C. overnight
T15 construct: replaced N-terminal leader; Freestyle 293F, purified
Protocol: as §1

A431 tumor = test: Diagnosis of apoptosis in target tissue (TUNEL and activated caspase 3 staining of tumor sections); assay type: in vivo, mouse (Balb/c-Ajcl-nu/nu); conditions: MMC 5 mg/6.25 mL/kg via tail vein, one, 3 and 5 days before the RI-labeled product
Source text: Male Balb/c-Ajcl-nu/nu mice of 5 to 6 weeks old (CLEA Japan, Inc.) were provided, and divided into two groups (the MMC administration group and the vehicle group; 3 individuals per group). A431 cells were inoculated into the left femoral region of each mouse, 2 to 3 weeks before the PET experiment for the MMC administration group, or 10 days to 2 weeks before the PET experiment for the vehicle group. Individuals of which the tumor size became […] on the day before the administration of the RI-labeled product were subjected to the PET experiment. One day, 3 days, and 5 days before the administration of the RI-labeled product, MMC (mitomycin C) was administered via the tail vein at an amount of 5 mg/6.25 mL/kg for the MMC administration group, and physiological saline was administered at amount of 6.25 mL/kg for the vehicle group.
After the completion of the PET experiment, the tumor was isolated from each mouse, and frozen sections were prepared. The prepared frozen sections were fixed with cold methanol, and stored at −20° C. until use. The sections were used for the experiment within 3 to 5 days after the dissection.
The frozen sections were subjected to blocking using Protein Block, Serum-Free (Dako), and then subjected to TUNEL staining using DeadEnd Fluorometric TUNEL System (Promega). […]

[17] = 10-fold dilution series of the fusion protein on PS-coated plate, read-out: EC50 ± SE (50% effective concentration)

T10 sequence (Q96H15 with tags, fused parts or gaps DEL135-260 limits assumed): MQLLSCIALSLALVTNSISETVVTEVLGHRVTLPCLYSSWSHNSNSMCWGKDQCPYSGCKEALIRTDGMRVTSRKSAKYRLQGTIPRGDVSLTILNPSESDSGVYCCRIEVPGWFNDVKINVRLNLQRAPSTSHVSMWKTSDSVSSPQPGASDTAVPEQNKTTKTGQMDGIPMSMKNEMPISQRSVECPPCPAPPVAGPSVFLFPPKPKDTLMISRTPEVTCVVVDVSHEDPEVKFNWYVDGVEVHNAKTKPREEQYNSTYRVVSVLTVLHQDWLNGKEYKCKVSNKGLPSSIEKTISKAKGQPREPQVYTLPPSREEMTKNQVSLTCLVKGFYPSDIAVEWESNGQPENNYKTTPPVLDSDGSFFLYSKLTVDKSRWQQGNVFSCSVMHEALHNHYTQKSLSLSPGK
T3 sequence (Q96H15 with tags, fused parts or gaps): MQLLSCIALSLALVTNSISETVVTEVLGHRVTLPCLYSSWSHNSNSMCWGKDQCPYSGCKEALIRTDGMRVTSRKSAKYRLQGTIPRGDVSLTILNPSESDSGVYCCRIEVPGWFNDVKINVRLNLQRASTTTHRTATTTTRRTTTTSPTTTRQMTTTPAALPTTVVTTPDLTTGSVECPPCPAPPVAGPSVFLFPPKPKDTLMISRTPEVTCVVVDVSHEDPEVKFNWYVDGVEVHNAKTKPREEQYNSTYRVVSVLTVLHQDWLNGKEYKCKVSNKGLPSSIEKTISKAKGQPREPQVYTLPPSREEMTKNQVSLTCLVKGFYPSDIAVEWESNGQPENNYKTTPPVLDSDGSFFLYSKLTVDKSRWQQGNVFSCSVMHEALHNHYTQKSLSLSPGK
T8 sequence (Q96H15 with tags, fused parts or gaps): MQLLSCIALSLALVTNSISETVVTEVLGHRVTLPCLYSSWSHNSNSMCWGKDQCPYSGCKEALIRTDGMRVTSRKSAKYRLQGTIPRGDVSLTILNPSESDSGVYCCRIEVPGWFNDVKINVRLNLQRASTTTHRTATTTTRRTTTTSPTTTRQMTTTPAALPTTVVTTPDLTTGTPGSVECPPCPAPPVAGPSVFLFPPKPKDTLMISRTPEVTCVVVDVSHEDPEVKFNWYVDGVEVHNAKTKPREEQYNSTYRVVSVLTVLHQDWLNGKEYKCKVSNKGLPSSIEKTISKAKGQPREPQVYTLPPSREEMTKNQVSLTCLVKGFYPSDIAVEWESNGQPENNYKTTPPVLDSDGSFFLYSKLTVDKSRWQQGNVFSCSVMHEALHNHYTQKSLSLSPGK
T6 sequence (Q96H15 with tags, fused parts or gaps DEL135-187/V240A limits assumed): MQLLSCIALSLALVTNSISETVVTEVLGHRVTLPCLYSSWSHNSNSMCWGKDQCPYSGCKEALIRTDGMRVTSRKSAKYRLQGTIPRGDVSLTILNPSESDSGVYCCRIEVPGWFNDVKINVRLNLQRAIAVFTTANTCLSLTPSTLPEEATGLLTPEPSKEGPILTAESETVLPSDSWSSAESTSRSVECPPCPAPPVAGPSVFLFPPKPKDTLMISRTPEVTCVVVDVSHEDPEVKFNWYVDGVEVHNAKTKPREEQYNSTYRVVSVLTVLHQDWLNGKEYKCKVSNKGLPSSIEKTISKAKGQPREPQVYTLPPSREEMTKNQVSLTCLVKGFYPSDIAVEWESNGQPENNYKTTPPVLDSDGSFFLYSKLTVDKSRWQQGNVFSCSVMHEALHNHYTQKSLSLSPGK
T9 sequence (Q96H15 with tags, fused parts or gaps): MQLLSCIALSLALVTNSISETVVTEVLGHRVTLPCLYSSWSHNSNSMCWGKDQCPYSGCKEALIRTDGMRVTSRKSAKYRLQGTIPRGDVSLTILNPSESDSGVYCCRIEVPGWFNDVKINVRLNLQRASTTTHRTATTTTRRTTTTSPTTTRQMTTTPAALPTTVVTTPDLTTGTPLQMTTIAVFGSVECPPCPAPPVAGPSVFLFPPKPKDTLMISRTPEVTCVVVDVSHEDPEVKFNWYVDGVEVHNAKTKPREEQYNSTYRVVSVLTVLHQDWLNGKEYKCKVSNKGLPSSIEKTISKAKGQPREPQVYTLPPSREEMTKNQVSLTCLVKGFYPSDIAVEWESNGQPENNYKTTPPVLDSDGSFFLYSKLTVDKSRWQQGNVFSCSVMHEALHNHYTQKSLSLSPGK
T4 sequence (Q96H15 with tags, fused parts or gaps): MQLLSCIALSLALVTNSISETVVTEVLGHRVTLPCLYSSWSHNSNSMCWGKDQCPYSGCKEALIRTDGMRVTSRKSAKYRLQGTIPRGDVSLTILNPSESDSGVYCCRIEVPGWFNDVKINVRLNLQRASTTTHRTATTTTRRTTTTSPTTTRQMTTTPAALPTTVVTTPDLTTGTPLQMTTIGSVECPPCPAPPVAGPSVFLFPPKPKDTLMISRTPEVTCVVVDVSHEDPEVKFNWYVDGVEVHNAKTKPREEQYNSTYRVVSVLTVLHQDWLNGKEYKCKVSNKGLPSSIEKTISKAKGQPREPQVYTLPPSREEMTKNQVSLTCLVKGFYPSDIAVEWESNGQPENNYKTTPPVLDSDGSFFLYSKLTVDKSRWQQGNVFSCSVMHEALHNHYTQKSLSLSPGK
T2 sequence (Q96H15 with tags, fused parts or gaps): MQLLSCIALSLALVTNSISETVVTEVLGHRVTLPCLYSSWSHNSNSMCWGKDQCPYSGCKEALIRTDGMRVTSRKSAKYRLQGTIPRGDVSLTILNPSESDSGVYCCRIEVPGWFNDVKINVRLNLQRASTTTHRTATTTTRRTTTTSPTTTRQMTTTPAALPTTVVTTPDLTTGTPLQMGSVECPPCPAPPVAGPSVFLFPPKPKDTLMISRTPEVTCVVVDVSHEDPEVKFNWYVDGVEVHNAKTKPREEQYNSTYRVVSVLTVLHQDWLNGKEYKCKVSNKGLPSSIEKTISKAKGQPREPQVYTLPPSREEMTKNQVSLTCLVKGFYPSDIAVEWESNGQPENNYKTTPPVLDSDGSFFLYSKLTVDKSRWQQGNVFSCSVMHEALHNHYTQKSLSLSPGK
T7 sequence (Q96H15 with tags, fused parts or gaps V240A): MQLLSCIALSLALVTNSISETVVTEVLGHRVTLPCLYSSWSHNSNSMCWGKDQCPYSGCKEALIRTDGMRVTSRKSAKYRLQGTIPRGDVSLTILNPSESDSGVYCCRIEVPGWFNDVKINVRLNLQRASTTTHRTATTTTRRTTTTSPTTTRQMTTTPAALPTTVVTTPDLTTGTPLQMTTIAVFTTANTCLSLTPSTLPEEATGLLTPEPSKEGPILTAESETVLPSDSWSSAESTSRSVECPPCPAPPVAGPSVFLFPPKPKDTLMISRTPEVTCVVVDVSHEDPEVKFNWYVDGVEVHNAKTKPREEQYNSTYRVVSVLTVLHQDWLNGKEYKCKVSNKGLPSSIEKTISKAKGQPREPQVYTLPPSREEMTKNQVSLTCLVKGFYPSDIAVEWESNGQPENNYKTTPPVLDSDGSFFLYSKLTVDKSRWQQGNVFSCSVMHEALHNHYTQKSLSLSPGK
T12 sequence (Q96H15 with tags, fused parts or gaps V240A/Q298T/M299D/D300G/G301W): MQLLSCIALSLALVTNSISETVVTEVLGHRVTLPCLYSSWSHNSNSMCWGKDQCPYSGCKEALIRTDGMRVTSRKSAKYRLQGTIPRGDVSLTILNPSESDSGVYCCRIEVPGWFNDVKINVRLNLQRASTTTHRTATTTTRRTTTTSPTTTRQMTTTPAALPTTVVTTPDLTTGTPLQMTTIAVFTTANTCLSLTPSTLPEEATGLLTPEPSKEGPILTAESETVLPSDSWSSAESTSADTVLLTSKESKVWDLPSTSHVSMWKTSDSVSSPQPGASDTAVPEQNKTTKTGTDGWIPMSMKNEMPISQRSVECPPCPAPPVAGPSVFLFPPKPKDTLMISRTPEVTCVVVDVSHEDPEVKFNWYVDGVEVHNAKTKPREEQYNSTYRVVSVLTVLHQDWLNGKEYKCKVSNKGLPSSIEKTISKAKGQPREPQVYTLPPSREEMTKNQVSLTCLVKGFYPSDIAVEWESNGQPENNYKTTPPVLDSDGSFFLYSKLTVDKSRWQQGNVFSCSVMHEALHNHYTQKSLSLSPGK
T15 sequence (Q96H15 with tags, fused parts or gaps V240A): as the sequence (Q96H15 with tags, fused parts or gaps V240A) above

3-sn-phosphatidyl-L-serine [PS]
binding to PS [1]: binding to PS was confirmed | EC50 [2, 17]: 47.5 ± 6.2 nM | Bmax ± SE (maximum binding amount) ([2]; PS-coated plate): 0.74 ± 0.04 Abs 450 nm | EC50 [3, 17]: 76.2 ± 19.5 nM | Bmax ± SE (maximum binding amount) ([3]; PS-coated plate): 0.77 ± 0.08 Abs 450 nm | EC50 [4, 17]: 100 ± 45.2 nM | Bmax ± SE (maximum binding amount) ([4]; PS-coated plate): 0.84 ± 0.17 Abs 450 nm | binding to PS [5]: binding to PS was confirmed | EC50 [6, 17]: 132 ± 305 nM | Bmax ± SE (maximum binding amount) ([6]; PS-coated plate): 0.02 ± 0.03 Abs 450 nm | EC50 [7, 17]: 7.1 ± 14.9 nM | Bmax ± SE (maximum binding amount) ([7]; PS-coated plate): 0.01 ± 0.01 Abs 450 nm | EC50 [8, 17]: 67 ± 54.8 nM | Bmax ± SE (maximum binding amount) ([8]; PS-coated plate): 0.63 ± 0.22 Abs 450 nm | EC50 [9, 17]: 62.8 ± 20.2 nM | Bmax ± SE (maximum binding amount) ([9]; PS-coated plate): 1.02 ± 0.14 Abs 450 nm | EC50 [10, 17]: 148 ± 85.8 nM | Bmax ± SE (maximum binding amount) ([10]; PS-coated plate): 0.07 ± 0.02 Abs 450 nm | binding to PS [11]: binding to PS was confirmed | binding specificity to PS among phospholipids [12]: binds to only PS | EC50 [13, 17]: 0.2 nM | Bmax ± SE (maximum binding amount) ([13]; PS-coated plate): 0.00 ± 0.00 Abs 450 nm | binding to PS [14]: binding to PS was confirmed | binding to PS [15]: binding to PS was confirmed | binding to PS [16]: binding to PS was confirmed

CO[C@@]12[C@H](COC(N)=O)C3=C(C(=O)C(C)=C(N)C3=O)N1C[C@@H]1N[C@@H]12 [MMC, mitomycin C]
occurrence of apoptosis in the tumor (A431 tumor): occurrence of apoptosis in the tumor of the MMC-administered individuals was confirmed
